Measurements: US11926580B2, “Hydropersulfide precursors” (THE JOHNS HOPKINS UNIVERSITY, priority 2018, dated 2024)
Where “and” joins values, the source holds several entries; their conditions need not be identical. Identical values can stand only once.

Legend:
[1] = Kinetics of RSSH generation by 1H NMR with NEM trapping; type: physicochemical; details: 10% D2O
Description: FIGS. 3a and 3b provide graphs of (a) Stacked ^1H NMR spectra showing the decomposition of precursor 4d (1 mM) with NEM (20 mM) in 10% D2O, phosphate buffer (PB), pH 7.4 at 37° C. to produce RSS-NEM adduct 5a; Precursor 4d was introduced to a solution of NEM in PB at t=0 min and following equilibration and shimming, the first 1H NMR spectrum was obtained after 6 min.; and (b) The kinetics of decomposition of 4d (circles represent the —CH3 protons (Ha) of the precursor) and formation of 5a (squares represent the diasterotopic protons (Hb) of the succinimide ring of the two product diastereomers).
Next, ^1H NMR spectroscopy was used to monitor the kinetics of RSSH generation from 4d by trapping with NEM in 10% D2O, pH 7.4 buffer containing DMSO as an internal standard at 37° C. An increase in the peak intensity attributed to one of the diasterotopic protons of the succinimide ring of the two product diastereomers (Hb, δ2.99-2.91 ppm) was observed (FIG. 3a). The other diasterotopic proton (Hc, δ3.30-3.21 ppm) overlaps with N-ethylmaleamic acid (NEMA), a product derived from NEM hydrolysis. Similarly, the intensity of two methyl group protons of precursor 4d (δ1.44 and 1.41 ppm) decreased as four methyl group protons of the two diastereomers of 5a (Ha, δ1.40, 1.37 ppm and 1.40, 1.34 ppm) increased, supporting the clean conversion of 4d to 5a. The ^1H NMR peak assignments for 5a are consistent with the RSS-NEM adduct formed during S-methoxycarbonyl penicillamine disulfide (MCPD) decomposition (Scheme 1, eq. 3) in the presence of NEM.
All starting materials were of reagent grade and used without further purification. N-acetyl-D-penicillamine, N-ethylmaleimide, N-ethylmaleamic acid, and phenylcyanamide were purchased from Sigma-Aldrich and used without further purification. Thiourea and N-substituted thioureas were purchased from Alfa Aesar and Oakwood Chemicals. Deuterated solvents (Cambridge Isotope Laboratories) were used for NMR spectroscopic analyses. NMR spectra were obtained on a 400 MHz FT-NMR spectrometer. All chemical shifts are reported in parts per million (ppm) relative to residual CHCl3 (7.26 ppm for ^1H, 77.2 ppm for ^13C), residual H2O (4.79 ppm for ^1H), residual DMSO (2.50 ppm for ^1H, 39.5 for ^13C), or residual MeOH (3.31 ppm for ^1H, 49.2 ppm for ^13C). The kinetics of RSSH generation were measured using a Varian Inova 800 MHz spectrometer. UPLC-MS analysis was carried out with a Waters Acquity/Xevo-G2 UPLC-MS system equipped with an ACQUITY UPLC BEH C18 column (2.1 mm×50 mm, 1.7 μm). The mass signals for products of hydropersulfide trapping with NEM were obtained via deconvolution using MassLynx 4.1 software. The pH measurements were performed using a Fisher Scientific Accumet AB15 pH-meter. Analytical thin layer chromatography (TLC) was performed on Sigma-Aldrich silica gel on TLC A1 foils with fluorescent indicator F254 plates. Visualization was accomplished with UV light (254 nm) or staining with KMnO4. Flash column chromatography was performed using SiliaFlash P60 (230-400 mesh) silica gel. Melting points were recorded using MEL-TEMP® capillary melting point apparatus and are uncorrected.

[2] = test system: cardiomyocyte H9c2 cells; assay: Cytotoxicity / cell viability assay with Cell Counting Kit-8; type: cell-based; details: 50 μM, 24 h, CCK-8
Description: (§1) FIGS. 6a and 6b provide graphs of (a) the cell viability of cardiomyocyte H9c2 cells following incubation of the RSSH precursor 4d (50 μM) and phenylcynamide (200 μM) for 24 h; and (b) the cytoprotective effects of the RSSH precursor 4d observed following pretreatment of H9c2 cells with either 4d (50 μM) or phenylcynamide (200 μM) for 2 h, followed by hydrogen peroxide (200 μM) treatment for 2 h. Quantification of cell viability was carried out using Cell Counting Kit-8 (CCK-8). Results are expressed as the mean±SEM (n=6).
The cytotoxicity and impact on cell viability of the hydropersulfide (RSSH) precursor 4d have been examined using the cardiomyocyte H9C2 cell line and Cell Counting Kit-8 (CCK-8). A cell viability assay reveled that 4d was not cytotoxic at 50 μM ([…]).

[3] = test system: cardiomyocyte H9c2 cells; assay: Cytoprotection against hydrogen peroxide-induced cytotoxicity; type: cell-based; details: pretreatment 2 h (4d 50 μM; phenyl cyanamide 200 μM), then H2O2 200 μM 2 h, CCK-8
Description: as §1
Since hydropersulfides are reported to mitigate oxidative stress, the ability of RSSH precursor 4d to protect cardiomyocyte H9c2 cells from cytotoxicity induced by hydrogen peroxide (H2O2) was tested.

[4] = Decomposition of precursor at pH 6 and pH 8.5; type: physicochemical
Source text: Based on the clean formation of hydropersulfide and aryl cyanamide during decomposition of 4d-h, the general mechanism shown in Scheme 5 is proposed. Neutralization of S-alkyl-thioisothiourea 7 (or its resonance partner 7a) occurs at pH 7.4 to produce a neutral species 8 and/or 8a, which can further undergo an elimination reaction to produce RSSH and aryl cyanamide. The elimination reaction can be initiated by either donation of the imine-nitrogen lone pair of 8 to form aryl cyanamide and RSSH (Scheme 5, eq. 2) or deprotonation of the arylamino-nitrogen proton to form RSSH and an aryl carbodiimide, which can further undergo tautomerization to afford the aryl cyanamide (Scheme 5, eq. 3). Alternately, an elimination reaction can be initiated by donation of the nitrogen lone pair of intermediate 8a to produce RSSH and aryl carbodiimide (Scheme 5, eq. 1). The decomposition of precursor 4d was examined at pH 6 and pH 8.5. […] In addition, the thermodynamic stability of the aryl cyanamide produced could contribute to the observed rate of RSSH release.

[5] = Kinetics of RSSH generation by 1H NMR with NEM trapping; type: physicochemical; details: pH 7.4 buffer with 20% MeOD, pH 7.4; read-out: half-life of precursor

With `CC(=O)NC(C(=O)O)C(C)(C)SSC(=N)Nc1ccccc1.Cl` (stereo not shown) [Precursor 4d, ((1-acetamido-1-carboxy-2-methylpropan-2-yl)disulfaneyl)(phenylamino)methaniminium chloride] the “k, single-exponential fit of precursor decomposition and 5a formation” value ([1]; 4d 1 mM, NEM 20 mM, phosphate buffer pH 7.4, 37° C.) was 0.12 min⁻¹, the half-life at 1 mM ([1]; NEM, pH 7.4 buffer, 37° C., read-out: half-life of precursor) was 5.6 min and the “t1//2 (mm)” value ([1]; precursor 1 mM, NEM 20 mM, pH 7.4 phosphate buffer, 37° C.) was 5.6 ± 0.3 min. The “Hydropersulfide Yield (%) (RSS-NEM adduct)” value ([1]; precursor 1 mM, NEM 20 mM, pH 7.4 phosphate buffer, 37° C., based upon % precursor consumed) was 96% and 96 ± 1%, the “cytotoxicity (cell viability)” value [2] was “not cytotoxic” and the “cytoprotection from H2O2-induced cytotoxicity” value [3] was “significant cytoprotection”. The decomposition rate ([4]; pH 6 (lower pH)) was “substantially slowed”, the decomposition rate ([4]; pH 8.5 (higher pH)) was “increased” and the melting point was 155 to 157 °C. It also gave a half-life [5] of 4.3 min.
